Laboratory results as given in patent US20200237766A1, “PKM2 ACTIVATORS IN COMBINATION WITH REACTIVE OXYGEN SPECIES FOR TREATMENT OF CANCER” (TOLERO PHARMACEUTICALS, INC., priority 2017, published 2020).
Where a name gives a salt, the structure may show the parent alone. Read-outs that look alike come from different tables or passages of the source.

What was measured:
PKM2 = PKM2 (Homo sapiens, UniProt P14618); experiment: PKM2 activation biochemical assay (AC50 / max. response vs fructose 1,6-bisphosphate); details: for Max. Resp. (%): % maximum response in a biochemical assay as compared with Fructose 1,6-bisphosphate
A549 cells [1] = experiment: GSH-Glo glutathione level assay in A549 cells; format: cell-based, human; details: treated 48 hours, even at concentrations as low as 0.1 μM
Method: Cells were treated for 48 hours, and then glutathione levels were determined using a GSH-Glo assay kit and procedure from Promega.

[2] = test system: A549 human lung cancer cells; experiment: Subcutaneous A549 human lung cancer xenograft model in BALB/c nude mice (Example 8); format: in vivo, Mus musculus; details: Group 2: Doxorubicin 2 mg/kg i.v. Q2D × 3 weeks + vehicle p.o.
Method: A549 human lung cancer cells were inoculated in BALB/c nude mice and treatment was initiated when tumors reached a mean volume of approximately 100 mm^3.
4.5 Randomization 60 mice were enrolled in the study. All animals were randomly allocated to the 6 different study groups. […] Randomization was performed based on “Matched distribution” randomization method using multi-task method (StudyDirector™ software, version 3.1.399.19) on day 13.
After tumor cell inoculation, the animals were checked daily for morbidity and mortality. At the time of routine monitoring, the animals were checked for any effects of tumor growth and treatments on behavior such as mobility, food and water consumption, body weight gain/loss (body weight was measured twice per week, or based on request after randomization), and any other abnormalities. Mortality and observed clinical signs were recorded for individual animals.
Tumor volumes were measured twice weekly in two dimensions using a caliper, and the volume was expressed in mm^3 using the formula: V=(L×W×W)/2, where V is tumor volume, L is tumor length (the longest tumor dimension) and W is tumor width (the longest tumor dimension perpendicular to L).
Tumor weight was measured at the end of study based on the protocol. Dosing as well as tumor and body weight measurement were conducted in a Laminar Flow Cabinet.
Statistical analysis of differences in mean tumor volume among the groups was conducted by Independent-Samples T Test using the data collected.
All data were analyzed with SPSS (Statistical Product and Service Solutions) version 18.0 (IBM, Armonk, N.Y., U.S.). […] All tests were two-sided. P<0.05 was considered to be statistically significant.

A549 cells [3] = experiment: Cell-titer-Glo cell viability, A549 cells; format: cell-based, human
[4] = biochemical assay, read-out: PKM2 AC50
[5] = Homo sapiens, A549 cells, anti-cancer drug alone, Cell-titer-Glo, read-out: EC50, cell viability

Sequence of PKM2 (P14618 whole entry): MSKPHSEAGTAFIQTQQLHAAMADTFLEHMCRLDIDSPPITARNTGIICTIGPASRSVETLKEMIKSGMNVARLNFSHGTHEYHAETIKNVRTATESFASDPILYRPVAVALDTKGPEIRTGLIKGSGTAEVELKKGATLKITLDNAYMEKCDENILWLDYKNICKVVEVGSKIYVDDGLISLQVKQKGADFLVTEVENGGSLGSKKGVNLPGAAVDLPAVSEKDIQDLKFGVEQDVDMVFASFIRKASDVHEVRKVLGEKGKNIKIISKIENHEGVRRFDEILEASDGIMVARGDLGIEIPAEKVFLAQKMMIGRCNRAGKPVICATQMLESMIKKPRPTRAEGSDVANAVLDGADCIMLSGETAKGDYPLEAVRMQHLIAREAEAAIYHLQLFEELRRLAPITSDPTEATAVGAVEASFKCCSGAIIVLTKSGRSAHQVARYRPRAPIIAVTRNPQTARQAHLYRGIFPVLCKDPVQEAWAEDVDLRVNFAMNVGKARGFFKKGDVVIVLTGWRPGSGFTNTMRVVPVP

SMILES | Max. Resp. (%) (PKM2) | AC50 (PKM2; [4]) | also measured
O=C(c1cc(C(F)(F)F)n[nH]1)N(Cc1ccccc1Cl)CC1CCCN1 (stereo not drawn) [Compound 232] | 85% | 0.32 µM | –
Nc1cccc(Cl)c1CN(CC1CCN1)C(=O)c1cc(C(F)(F)F)n[nH]1 (stereo not drawn) [Compound 233] | 75% | 0.93 µM | –
Nc1cccc(Cl)c1CN(CCN1CCC(O)C1)C(=O)c1cc(C(F)(F)F)n[nH]1 (stereo not drawn) [Compound 234] | 100% | 0.111 µM | –
COC1CCN(CCN(Cc2c(N)cccc2Cl)C(=O)c2cc(C(F)(F)F)n[nH]2)C1 (stereo not drawn) [Compound 235] | 100% | 0.133 µM | –
Nc1cccc(Cl)c1CN(CCN1CCCC(F)C1)C(=O)c1cc(C(F)(F)F)n[nH]1 (stereo not drawn) [Compound 236] | 73% | 0.16 µM | –
COC1CCCN(CCN(Cc2c(N)cccc2Cl)C(=O)c2cc(C(F)(F)F)n[nH]2)C1 (stereo not drawn) [Compound 237] | 100% | 0.183 µM | –
Nc1cccc(Cl)c1CN(CCN1CCC(F)CC1)C(=O)c1cc(C(F)(F)F)n[nH]1 [Compound 238] | 100% | 0.116 µM | –
Nc1cccc(Cl)c1CN(CCN1CCCOCC1)C(=O)c1cc(C(F)(F)F)n[nH]1 [Compound 239] | 100% | – | AC50 (PKM2): 0.115 µM
CCCN(CC)CCN(Cc1c(N)cccc1F)C(=O)c1cc(C(F)(F)F)n[nH]1 [Compound 240] | 100% | 0.068 µM | –
Nc1cccc(Cl)c1CN(CCN1CC[C@H](F)C1)C(=O)c1cc(C(F)(F)F)n[nH]1 [Compound 241] | 100% | – | AC50 (PKM2): 0.125 µM
Nc1cccc(Cl)c1CN(CCN1CC[C@@H](F)C1)C(=O)c1cc(C(F)(F)F)n[nH]1 [Compound 242] | 100% | – | AC50 (PKM2): 0.465 µM
Nc1cccc(Cl)c1CN(CCN1CCCC(F)CC1)C(=O)c1cc(C(F)(F)F)n[nH]1 (stereo not drawn) [Compound 243] | 100% | 0.106 µM | –
O=C(c1cc(C(F)(F)F)n[nH]1)N(Cc1ccc(O)cc1F)CC1CCC1 [Compound 244] | 107% | 0.062 µM | –
O=C(c1cc(Br)n[nH]1)N(Cc1ccc(O)cc1F)CC1CCC1 [Compound 245] | 100% | 0.035 µM | –
O=C(c1cc(C2CC2)n[nH]1)N(Cc1ccc(O)cc1F)CC1CCC1 [Compound 246] | 85% | – | –
O=S(=O)(c1ccc2c(c1)OCCO2)N1CCN(S(=O)(=O)c2c(F)cccc2F)CC1 [DASA, reference compound] | – | – | glutathione levels (GSH-Glo) (A549 cells [1]): decreased levels of glutathione
COc1cccc2c1C(=O)c1c(O)c3c(c(O)c1C2=O)C[C@@](O)(C(=O)CO)C[C@@H]3O[C@H]1C[C@H](N)[C@H](O)[C@H](C)O1 [Doxorubicin, doxorubicin, reference compound] | – | – | Tumor Size (mm^3) on day 33 ([2]; Mean ± SEM): 723.15 ± 129.91 mm^3; Tumor Weight (mg) on day 33 ([2]; Mean ± SEM): 676.9 ± 107.8 mg; T/C (%) (tumor size) ([2]; day 33): 93%; T/C (%) (tumor weight) ([2]; day 33): 91%; TGI (%) (tumor size) ([2]; day 33): 7%; TGI (%) (tumor weight) ([2]; day 33): 9%
C=CCNc1c(O)cc2c(O)c1C[C@@H](C)C[C@H](OC)[C@H](O)[C@@H](C)/C=C(\C)[C@H](OC(N)=O)[C@@H](OC)/C=C\C=C(/C)C(=O)N2 [IPI-504, retaspimycin hydrochloride] | – | – | EC50 (A549 cells [3]; Homo sapiens, A549, read-out: EC50, cell viability): 0.0599 µM
Cc1ccc2nc(Cn3c(Cc4ccccc4)nc4ccccc43)cc(=O)n2c1 [PP1] | 148% | 3.5 µM | –

SMILES | Max. Resp. (%) (PKM2) | AC50 (PKM2; [4]) | also measured
Cc1ccc2nc(Cn3c(C)nc4ccccc43)cc(=O)n2c1 [PP2] | 73% | – | –
Cc1ccc2nc(Cn3cnc4ccccc43)cc(=O)n2c1 [PP3] | 149% | 0.755 µM | –
O=c1cc(Cn2cnc3ccccc32)nc2ccccn12 [PP4] | 161% | 0.34 µM | –
Cc1cccc2nc(Cn3cnc4ccccc43)cc(=O)n12 [PP8] | – | 0.159 µM | glutathione levels (GSH-Glo) (A549 cells [1]): decreased levels of glutathione
Cc1ccn2c(=O)cc(Cn3cnc4ccccc43)nc2c1 [PP9] | – | 0.216 µM | –
O=c1cc(Cn2cnc3ccccc32)nc2ccc(Cl)cn12 [PP10] | – | 0.219 µM | –
CCc1ccc(C)n2c(=O)cc(Cn3cnc4ccccc43)nc12 [PP11] | – | 0.12 µM | –
COc1ccc2nc(Cn3cnc4ccccc43)cc(=O)n2c1 [PP12] | – | 0.47 µM | –
Cc1cccn2c(=O)cc(Cn3cnc4ccccc43)nc12 [PP13] | – | 0.145 µM | –
Cc1sc2nc(Cn3cnc4ccccc43)cc(=O)n2c1C [PP14] | – | 0.086 µM | –
O=c1cc(Cn2cnc3ccccc32)nc2scc(-c3ccccc3)n12 [PP15] | – | 1.03 µM | –
Cc1csc2nc(Cn3cnc4ccccc43)cc(=O)n12 [PP16] | – | 0.127 µM | –
Cc1cn2c(=O)cc(Cn3cnc4ccccc43)nc2s1 [PP17] | – | 0.466 µM | –
O=c1cc(Cn2cnc3ccccc32)nc2sccn12 [PP18] | – | 0.266 µM | –
CCc1nn2c(=O)cc(Cn3cnc4ccccc43)nc2s1 [PP19] | – | 4.76 µM | –
COc1cccc(NS(=O)(=O)c2cc3c(cc2Cl)NC(=O)CO3)c1 [PP20] | 108% | 0.153 µM | –
CC(C)C[C@H](NC(=O)[C@H](Cc1ccccc1)NC(=O)c1cnccn1)B(O)O [bortezomib] | – | – | decrease in EC50 when used in combination with Compound 91 (A549 cells [3]; A549 cells, Compound 91 at 4 μM vs drug alone): ~2 fold; EC50 (A549 cells [3]; [5]): 0.0434 µM; EC50 (A549 cells [3]; Homo sapiens, A549 cells, in the presence of Compound 91 at 4 μM, Cell-titer-Glo, read-out: EC50, cell viability, in combination with Compound 91): 0.027 µM
CNC(=O)c1cc(Oc2ccc(NC(=O)Nc3ccc(Cl)c(C(F)(F)F)c3)cc2)ccn1 [sorafenib] | – | – | EC50 (A549 cells [3]; A549 cells, in the presence of Compound 91 at 4 μM, Cell-titer-Glo, read-out: EC50, cell viability, in combination with Compound 91): 7.13 µM; EC50 (A549 cells [3]; [5]): 30.1 µM

Now from value to compound, other results behind:

Max. Resp. (%) (PKM2) | AC50 (PKM2; [4]) | SMILES | also measured
24% | 7.64 µM | O=C(CCSC(=S)NCc1cccnc1)c1ccccc1 [PMA8] | –
– | > 20 µM | O=C(CCSC(=S)NCc1cccnc1)c1ccc(Cl)cc1 [PMA9] | –
48% | 9.83 µM | O=C(CCSC(=S)NCc1cccnc1)c1ccc(F)cc1 [PMA10] | –
76% | 6.23 µM | O=C(CCSC(=S)NCc1cccnc1)c1ccc(O)cc1 [PMA11] | –
61% | 4.39 µM | N#Cc1ccc(C(=O)CCSC(=S)NCc2cccnc2)cc1 [PMA12] | –
49% | 2.76 µM | O=C(CCSC(=S)NCc1cccnc1)c1ccc([N+](=O)[O-])cc1 [PMA13] | –
– | > 20 µM | O=C(CCSC(=S)NCc1cccnc1)c1ccc(OCc2ccccc2)cc1 [PMA15] | –
63% | 11.2 µM | COc1ccc(C(=O)CCSC(=S)NCc2cccnc2)cc1 [PMA16] | –
23% | > 20 µM | O=C(CCSC(=S)NCc1cccnc1)c1ccc(C(F)(F)F)cc1 [PMA17] | –
88% | 3.93 µM | COc1ccccc1C(=O)CCSC(=S)NCc1cccnc1 [PMA18] | –
63% | 5.61 µM | O=C(CCSC(=S)NCc1cccnc1)c1ccccc1Cl [PMA19] | –
42% | > 20 µM | O=C(CCSC(=S)NCc1cccnc1)c1ccc(F)c(F)c1 [PMA21] | –
131% | 10.1 µM | COc1cc(C(=O)CCSC(=S)NCc2cccnc2)cc(OC)c1OC [PMA22] | –
107% | 4.3 µM | O=C(CCSC(=S)NCc1cccnc1)c1ccco1 [PMA25] | –
20% | > 20 µM | O=C(CCSC(=S)NCc1cccnc1)c1cccs1 [PMA26] | –
126% | > 20 µM | O=C(CCSC(=S)NCc1cccnc1)c1ccc[nH]1 [PMA27] | –
72% | 3.56 µM | O=C(CCSC(=S)NCc1cccnc1)c1nccs1 [PMA28] | –
106% | 3.7 µM | O=C(CCSC(=S)NCc1cccnc1)c1cccnc1 [PMA29] | –
– | > 20 µM | O=C(CCSC(=S)NCc1cccnc1)c1c[nH]c2ccccc12 [PMA31] | –
182% | 1 µM | O=C(CCSC(=S)NCc1cccnc1)c1c[nH]c2ncccc12 [PMA32] | –
101% | 18.1 µM | O=C(CCSC(=S)NCc1cccnc1)c1cnc2ccccn12 [PMA33] | –
30% | 4.34 µM | O=C(CCSC(=S)NCc1cccnc1)c1cc[nH]c1 [PMA35] | –
